# Experimental data reported in patent publication US8592396B2, “Glucokinase activators and methods of using same” (Bristol-Myers Squibb Company, priority 2010, dated 2013).
# Key:
# Human Glucokinase = biological target: T1, Human Glucokinase (Homo sapiens, UniProt P35557); test: Glucokinase tandem enzymatic assay; type: biochemical; conditions: 12 mM glucose; for Emax: expressed as a % of basal activation, read-out: Maximal activation (%) Human Glucokinase @ 12 mM Glucose
# T1 construct: Full-length human hepatic GK (untagged) was expressed; made in house; host or cells: E. coli BL21 STAR (DE3)pLysS
# T1 sequence (P35557 1-466 isoform P35557-2): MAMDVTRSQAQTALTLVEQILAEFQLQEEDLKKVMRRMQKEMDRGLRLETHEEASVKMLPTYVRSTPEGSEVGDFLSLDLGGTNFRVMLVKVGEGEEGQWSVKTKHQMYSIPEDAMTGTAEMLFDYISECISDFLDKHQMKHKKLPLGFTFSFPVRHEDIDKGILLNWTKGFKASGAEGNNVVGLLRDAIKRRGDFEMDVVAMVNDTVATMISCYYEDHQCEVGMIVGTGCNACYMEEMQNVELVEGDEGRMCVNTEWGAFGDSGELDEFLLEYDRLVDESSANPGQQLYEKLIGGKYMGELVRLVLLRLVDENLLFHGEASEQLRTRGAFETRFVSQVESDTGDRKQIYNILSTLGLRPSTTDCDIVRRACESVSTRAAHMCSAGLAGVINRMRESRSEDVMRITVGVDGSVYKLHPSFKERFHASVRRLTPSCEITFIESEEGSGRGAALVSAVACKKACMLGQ
# Procedure: Glucokinase Tandem Enzymatic Assay
# Enzymatic activity of human glucokinase (GK) was measured by incubating GK, ATP, and glucose for discrete time periods followed by quenching with EDTA (ethylenediamine tetra-acetic acid). Relative amounts of product glucose-6-phosphate (G6P) were measured by then running a detection assay using G6P dehydrogenase and measuring the conversion of ThioNAD (thio-nicotinamide adenine dinucleotide) to ThioNADH (thio-dihydronicotinamide adenine dinucleotide) at a wavelength of 405 nm. This “uncoupled” enzymatic reaction is denoted as the GK “tandem” assay. Activation of GK by compounds can be assessed using this assay. The GK tandem assay protocol described below was followed using a range of activator compound concentrations from 0 to 100 μM at 5 and 12 mM of glucose. Human full-length glucokinase (GK, 15 nM) was incubated with 5 or 12 mM glucose in a 384 well black microtiter plate with a clear bottom. To initiate the GK reaction, magnesium-ATP (3 mM final concentration) was added to GK in buffer (final buffer conditions of 25 mM HEPES buffer, pH 7.1, containing 1 mM dithiothreitol and 5% DMSO). The total reaction volume was 20 μL. The reaction was allowed to proceed for ten minutes and was then quenched with 5 μL EDTA; 45 mM final). The components of the detection reaction, ThioNAD and G6PDH (glucose-6-phosphate dehydrogenase) (final concentrations of 650 μM and 3.33 Units, respectively), were then added together in a volume of 25 μL, (to give a total volume of 50 μL). Absorbance measurements were made at 405 nm on a SPECTRAMAX® Plus 384 absorbance plate reader (Molecular Devices). Absorbance was read, background glucose-6-phosphate levels were subtracted, after which activation was calculated as a percentage of control activity. Control activity was determined using GK in the presence of vehicle (DMSO), with background glucose-6-phosphate subtracted. Background glucose-6-phosphate was determined by pre-quenching GK with EDTA prior to reaction initiation with ATP.
# Expression and Purification of Human GK
# Full-length human hepatic GK (untagged) was expressed in BL21 STAR (DE3)pLysS cells (Invitrogen) at 25° C. as described by Mookhtiar et al. (1). The protein was purified essentially as described by Lange (2) with a slight modification. Briefly, cell pellets were lysed via three rounds of freezing and thawing, centrifuged at 15000 g for clarification, and precipitated with 40-65% (NH4)2SO4. The resulting pellet was resuspended in buffer, dialyzed, and applied directly to a Q-SEPHAROSE® (Sigma) column followed by elution with a linear 100-600 mM KCl gradient. GK containing fractions were pooled, dialyzed overnight vs. 25 mM Hepes pH 7.2/1 mM MgCl2/1 mM EDTA/0.1 M KCl/1 mM DTT, then dialyzed again with same buffer with 10% glycerol added.
# [1] = system: male DIO (diet-induced obese) C57BL/6J mice; test: Oral glucose tolerance test (OGTT) in DIO mice; type: in vivo; conditions: 30 μmol/kg given orally 60 min before 2 g/kg oral glucose; DIO C57BL/6J mice; ΔAUC 0-120 min
# Procedure: In Vivo Studies: Oral Glucose Tolerance Test (OGTT)
# Oral glucose tolerance tests were carried out on male DIO (diet-induced obese) C57BL/6J mice fed a high fat diet (60% kcal from fat) for 26 weeks prior to experimentation. Mice were fasted overnight before use for experiments. A test compound or vehicle (either: 1) 40% PEG 400+10% Cremophore+50% water or 2) 10% dimethyl acetamide+10% ethanol+10% Cremophore+70% water) was given orally 60 min before oral administration of a glucose solution at a dose of 2 g/kg body weight (oral glucose tolerance test; OGTT). Blood glucose levels were measured from tail-bled samples taken at different time points before and after administration of glucose (time course of 2 hours). A time curve of the blood glucose was generated and the change from baseline area-under-the curve (ΔAUC) from 0-120 min was calculated (the time glucose administration being time zero).
SMILES,Emax (Human Glucokinase) [%],EC50 (Human Glucokinase) [nM],Reduction in Glucose AUC at 30 μmol/kg dose [1] [%]
CCOP(=O)(Cc1csc(Nc2ncnc3ccc(O[C@@H](C)COC)cc23)n1)OCC [Example 4],180,,
CCOP(=O)(Cc1csc(Nc2ncnc3ccc(OC(CF)CF)cc23)n1)OCC [Example 1],145,91,93
CCOP(C)(=O)Cn1ccc(Nc2ncnc3ccc(OC(C)C)cc23)n1 (racemic) [Example 3],134,810,
CCOP(C)(=O)Cc1csc(Nc2ncnc3ccc(OC(CF)CF)cc23)n1 (racemic) [Example 6],,390,
CCOP(=O)(Cc1csc(Nc2ncnc3ccc(OC(C)C)cc23)n1)OCC [Example 2],,136,
